Data published in paper PMC9820444, “Design and Synthesis of Acridine-Triazole and Acridine-Thiadiazole Derivatives and Their Inhibitory Effect against Cancer Cells” (International Journal of Molecular Sciences, 2022).

Columns and labels:
[1] = tested on: human foreskin fibroblasts (HFF); test: MTT antiproliferative assay, HFF; type: cell-based; conditions: Homo sapiens, Fibroblast, read-out: Effect against cell viability (IC50), HFF
[2] = tested on: subintestinal veins (SIVs) in zebrafish embryos; test: Zebrafish angiogenesis assay (subintestinal veins, NBT/BCIP staining); type: in vivo; conditions: zebrafish embryos, 1 mg/mL, compared with blank control group
Source text: Currently, the zebrafish has emerged as a valuable model organism to substitute traditional models for studying angiogenesis inhibitors. The genes of zebrafish show 70–80% similarity to humans, and the vascular structure of zebrafish has high similarity to that of other vertebrates. Therefore, the subintestinal veins (SIVs) in the zebrafish embryos are used as evaluation indicators for anti-angiogenesis inhibitors. In this study, NBT/BCIP vascular staining was used to observe the angiogenesis effect of representative drugs (4h, 4f, 5d, 5h, 6g and 6h) in a zebrafish model. […] Compared with the blank control group, the area of the meshed pattern vessel and the number of vascular branches in the network decreased after the administration of compounds 4h, 5d, 5h and 6h.
The 24 hpf zebrafish embryos were dechorionated with a 1 gL^−1 pronase treatment and maintained in distilled water in 12-well cell culture plates (each well contained 20 embryos). A negative control group containing zebrafish embryos in distilled water and a vehicle treatment group that was treated with 2% dimethyl sulfoxide (DMSO) were prepared. The anti-angiogenic compounds were diluted to 1 mg/mL. After incubating at 28 °C for […], the embryos were immersed in 4% paraformaldehyde and dehydrated by gradient ethanol. Subsequently, the embryos were balanced in NTMT buffer (5 M NaCl + 1 M Tris [pH 9.0–9.5] + 1 M MgCl2+ 10% Tween), and nitrotetrazolium blue chloride (NBT) and p-toluidine salt (BCIP) staining were performed. To evaluate the effect of compounds on the angiogenesis of zebrafish embryos, the growth of embryonic sub-intestinal veins (SIVs) at 72 hpf was observed using an IX71 Olympus microscope (Hamburger, Germany). The length of the SIVs was calculated using the image J 1.8.0 software (Bethesda, MD, USA).

[3] = tested on: human gastric cancer cells-803 (MGC-803); test: MTT antiproliferative assay, MGC-803; type: cell-based; conditions: Homo sapiens, MGC-803, MTT, read-out: Effect against cell viability (IC50), MGC-803
[4] = molecular target: T1, DNA topoisomerase I (topo I) (Bos taurus, UniProt F1MN93); test: Topo I inhibitory activity (pBR322); type: biochemical; conditions: at 100 µM
T1 construct: purchased Takara Bio Inc. (Shiga, Japan)
T1 sequence (F1MN93 1-767): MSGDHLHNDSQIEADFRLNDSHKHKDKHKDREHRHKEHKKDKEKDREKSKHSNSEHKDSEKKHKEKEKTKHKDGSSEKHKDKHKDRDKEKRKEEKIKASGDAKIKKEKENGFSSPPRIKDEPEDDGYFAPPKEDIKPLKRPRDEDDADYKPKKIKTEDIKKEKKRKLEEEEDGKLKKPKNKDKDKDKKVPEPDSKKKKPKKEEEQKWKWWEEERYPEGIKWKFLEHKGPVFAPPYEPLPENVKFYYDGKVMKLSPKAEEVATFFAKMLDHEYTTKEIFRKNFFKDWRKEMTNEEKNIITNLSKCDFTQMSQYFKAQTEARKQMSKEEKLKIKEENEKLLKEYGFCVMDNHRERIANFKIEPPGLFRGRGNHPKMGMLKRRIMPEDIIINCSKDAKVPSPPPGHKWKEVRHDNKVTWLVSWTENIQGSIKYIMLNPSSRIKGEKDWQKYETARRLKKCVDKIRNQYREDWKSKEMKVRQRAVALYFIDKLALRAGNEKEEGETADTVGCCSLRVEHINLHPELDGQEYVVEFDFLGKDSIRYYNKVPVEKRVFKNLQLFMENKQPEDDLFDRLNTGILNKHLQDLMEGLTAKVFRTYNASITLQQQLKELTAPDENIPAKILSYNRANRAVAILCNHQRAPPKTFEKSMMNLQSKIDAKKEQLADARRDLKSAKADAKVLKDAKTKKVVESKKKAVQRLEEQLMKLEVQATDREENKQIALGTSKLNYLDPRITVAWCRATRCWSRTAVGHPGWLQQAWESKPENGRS

[5] = tested on: MGC80-3 cells; test: Apoptosis by Annexin V-FITC/PI flow cytometry, MGC80-3; type: cell-based, human; conditions: control 0.586%
Description: The apoptosis ratios of MGC80-3 or T24 cell lines induced by the selected compounds at the concentration of IC50 and 0.5 IC50 were quantitatively determined by flow cytometry. Four quadrant images (Q1, Q2, Q3 and Q4) were observed by flow cytometric analysis. […] […] After treatment with compound 6h, 5.62% (3.43 μM) and 14.25% (6.85 μM) of the cells were apoptotic. These were higher percentages than the one observed in the control (0.586%). […] The results evidently illustrate that representative compounds 5d and 6h or 4h and 6h could suppress cell proliferation by inducing apoptosis in the early apoptotic period.
The apoptosis assay and the cell cycle analysis were carried out by cytometry (FACSVerse, BD, Piscataway, NJ, USA) at an excitation wavelength of 488 nm according to the method described in the literature with slight modifications. The cells were seeded at 2 × 10^6/well and washed by cold PBS. The buffer solutions were prepared using 0.1 M pH 7.4 Hepes/NaOH, 1.4 M NaCl, and 25 mM CaCl2.

[6] = tested on: bladder cancer cells (T24); test: MTT antiproliferative assay, T24; type: cell-based, human; conditions: Homo sapiens, read-out: Effect against cell viability (IC50), T24

COc1ccc(-c2nnc(N=C3c4ccccc4NC4C=CC(C)=CC34)s2)cc1 (stereo not shown) [6h, 7-methyl-N-(5-(4-methoxyphenyl)-1,3,4-thiadiazol-2-yl)-10,10a-dihydroacridin-9(8aH)-imine]
IC50 [1]: 33.9 ± 1.28 µM
area of the meshed pattern vessel and number of vascular branches in the network [2]: decreased
IC50 [3]: 6.85 ± 0.84 µM
topo I inhibitory activity [4]: potent
apoptosis percentage (early and late) ([5]; MGC80-3, 0.5 IC50 (5d 2.76 μM; 6h 3.43 μM)): 5.62%
apoptosis percentage (early and late) ([5]; MGC80-3, IC50 (5d 5.52 μM; 6h 6.85 μM)): 14.25%
IC50 [6]: 8.93 ± 1.25 µM
